Measurements taken from patent US10213415B2, “Compounds as opioid receptor modulators” (JANSSEN PHARMACEUTICA NV, priority 2004, dated 2019).

How the values were obtained:
[1] = target: T1, delta opioid receptor (Rattus norvegicus, UniProt P33533); assay: Rat Brain Delta Opioid Receptor Binding Assay-Version 1a ([3H]naltrindole); settings: rat forebrain membranes, 0.1 nM [3H]naltrindole; margin of error 10-20%; read-out: r Ki δ Ver. 1a
T1 construct: from tissue; host or cells: forebrain of male Wistar rats
T1 sequence (P33533 whole entry): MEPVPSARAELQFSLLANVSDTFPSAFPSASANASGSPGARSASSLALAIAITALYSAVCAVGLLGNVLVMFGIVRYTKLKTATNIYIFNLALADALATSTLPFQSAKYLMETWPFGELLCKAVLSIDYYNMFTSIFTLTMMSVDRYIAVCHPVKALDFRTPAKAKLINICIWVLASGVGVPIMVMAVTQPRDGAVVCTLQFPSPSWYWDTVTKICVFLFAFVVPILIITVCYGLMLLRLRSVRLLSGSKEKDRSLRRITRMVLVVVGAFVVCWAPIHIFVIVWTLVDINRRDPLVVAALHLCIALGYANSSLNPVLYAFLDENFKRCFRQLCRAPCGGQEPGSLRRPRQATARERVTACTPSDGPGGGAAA
Method: Male, Wistar rats (150-250 g, VAF, Charles River, Kingston, N.Y.) were killed by cervical dislocation, and their brains removed and placed immediately in ice-cold Tris HCl buffer (50 mM, pH 7.4). The forebrains were separated from the remainder of the brain by a coronal transection, beginning dorsally at the colliculi and passing ventrally through the midbrain-pontine junction. After dissection, the forebrains were homogenized in Tris buffer in a Teflon®-glass homogenizer. The homogenate was diluted to a concentration of 1 g of forebrain tissue per 80 mL Tris and centrifuged at 39,000×g for 10 min. The pellet was resuspended in the same volume of Tris buffer containing 5 mM MgCl2 with several brief pulses from a Polytron homogenizer. This particulate preparation was used for the delta opioid binding assay. Following incubation with 0.1 nM of the delta selective ligand [^3H]naltrindole at 25° C. for 2.5 h in a 96-well plate with total 1 mL, the plate contents were filtered through Wallac filtermat B sheets on a Tomtec 96-well harvester. The filters were rinsed three times with 2 mL of 10 mM HEPES (pH 7.4), and dried in a microwave oven. To each sample area, Betaplate Scint scintillation fluid (LKB) was added and the resulting radioactivity quantified on a LKB (Wallac) 1205 BetaPlate liquid scintillation counter. Kd and Ki values were calculated using the GraphPad PRISM data analysis program.

[2] = test system: rats; assay: Visceral Hyperalgesia Testing (colorectal balloon distention following zymosan); assay type: in vivo, rat; settings: 30 mg/kg i.p., 5 rats, repeated distentions of 40 mmHg
Method: Method: Rats were chronically instrumented with EMG electrodes in the muscles of the anterior abdominal wall. Distention of an intracolonic balloon, using a barostat apparatus, evoked increases in the EMG recordings that are related to the pressure. Control responses are compared with repeat stimulation 4 hours after zymosan is administered to the colon (FIG. 1).

Row | SMILES | Ki [1] [µM] | hyperalgesic response to colorectal balloon distention following zymosan [2]
1 | Cc1cc(O)cc(C)c1C[C@H](N)C(=O)N(Cc1cccc(C(=O)O)c1)[C@@H](C)c1nc(-c2ccccc2)c[nH]1 [Cpd 48] | 0.00024 | 
2 | COC(=O)c1ccc(CN(C(=O)[C@@H](N)Cc2ccc(C(N)=O)cc2)[C@@H](C)c2nc(-c3ccccc3)c[nH]2)o1 [Cpd 303] | 0.0245 | 
3 | COC(=O)c1ccc(CN(C(=O)[C@@H](N)Cc2c(C)cc(C(N)=O)cc2C)[C@@H](C)c2nc(-c3ccccc3)c[nH]2)o1 [Cpd 257] | 0.014 | 
4 | COc1ccc(CN(C(=O)[C@@H](N)Cc2c(C)cc(C(N)=O)cc2C)[C@@H](C)c2nc(-c3ccccc3)c[nH]2)cc1C(=O)O [Cpd 18] |  | blocked the hyperalgesic response
